In US4503055A, “Derivatives of [4-(piperazin-1-yl-phenyloxymethyl)-1,3-dioxolan-2-ylmethyl]-1H-imidazol es and 1H-1,2,4-triazoles” (Janssen Pharmaceutica, N.V., priority 1981, dated 1985):

Experiments:
[1] = tested on: Candida albicans; assay: Activity against crop candidosis in turkeys; assay type: in vivo; conditions: medicated feed for 13 consecutive days from day of infection, crops of 50% of animals completely negative for Candida albicans
Method: Turkeys of 14 days old are infected in the crop with 4.10^6 Candida albicans cells, grown on Sabouraud broth for 48 hours at 37° C. and diluted with saline. The volume of the inoculum is 1 ml. The drugs under investigation are premixed in 500 mg of lacton and thereafter admixed in 1000 g of meal without any additives. The concentration of the drug under investigation in the meal is expressed in mg/kg. The animals are given the medicated feed for 13 consecutive days starting on the day of infection. At the end of the experiment all animals are sacrificed. At autopsy the crops are removed, emptied and grinded in an ultra-turrax mixer in 15 ml of sterile saline. Colony counting is done on Sabouraud agar and the results given in the table represents the ED50, i.e., the dose of the drug whereby the crops of 50% of the animals are completely negative for Candida albicans.

[2] = tested on: Candida albicans; assay: Activity against vaginal candidosis in rats; assay type: in vivo, Female Wistar rats; conditions: 336 h, oral, once a day for two days from day of infection, active at the 14th day after infection, read-out: Vaginal candidosis in rats: lowest effective dose in mg/kg orally
Method: Female Wistar rats of ±100 g body weight are used. They are ovariectomized and hysterectomized and after three weeks of recovery, 100 μg of oestradiol undecylate in sesame oil is given subcutaneously once a week for 3 consecutive weeks. The thus induced pseudooestrus is controlled by microscopic examination of vaginal smears. Food and water are left available ad libitum. The rats are infected intravaginally with 8.10^5 cells of Candida albicans, grown on Sabouraud broth for 48 hours at 37° C. and diluted with saline. The date of infection varies from day +25 to day +32 after surgical intervention, depending on the appearance of signs of induced pseudooestrus. The drugs under investigation are administered orally once a day for two days starting from the day of infection. For each experiment there are placebo treated controls. The results are assessed by taking vaginal smears with sterile swabs on several days after the infection. The swabs are put into Sabouraud broth in petri-dishes and incubated for 48 hours at 37° C. If no growth of Candida albicans occurs, i.e., when the animals are negative at the end of the experiment, this is due to drug administration because it never happens in placebo treated controls. The table below gives the lowest oral dose of the drug under investigation which is found active at the 14th day after infection.

Structure (SMILES) | Crop candidosis in turkeys: ED50 in mg/kg feed [1] [mg/kg feed] | minimal effective dose [2] [mg/kg]
Cc1ccc(S(=O)(=O)N2CCN(c3ccc(OC[C@H]4CO[C@](Cn5cncn5)(c5ccc(Cl)cc5Cl)O4)cc3)CC2)cc1 (relative stereo) | < 31 | –
O=C(CN1CCN(c2ccc(OC[C@H]3CO[C@](Cn4ccnc4)(c4ccc(Cl)cc4Cl)O3)cc2)CC1)Nc1c(Cl)cccc1Cl (relative stereo) | 31 | 2.5
Cc1ccccc1NC(=O)CN1CCN(c2ccc(OC[C@H]3CO[C@](Cn4ccnc4)(c4ccc(Cl)cc4Cl)O3)cc2)CC1 (relative stereo) | 16 | 2.5
Clc1ccc(CN2CCN(c3ccc(OC[C@H]4CO[C@](Cn5ccnc5)(c5ccc(Cl)cc5Cl)O4)cc3)CC2)cc1 (relative stereo) | < 31 | –
Cc1ccc(NC(=O)CN2CCN(c3ccc(OC[C@H]4CO[C@](Cn5ccnc5)(c5ccc(Cl)cc5Cl)O4)cc3)CC2)cc1 (relative stereo) | 16 | –
CCOC(=O)COC(=O)N1CCN(c2ccc(OC[C@H]3CO[C@](Cn4ccnc4)(c4ccc(Cl)cc4Cl)O3)cc2)CC1 (relative stereo) | 31 | 2.5
O=C(C=Cc1ccc(Cl)cc1)N1CCN(c2ccc(OC[C@H]3CO[C@](Cn4cncn4)(c4ccc(Cl)cc4Cl)O3)cc2)CC1 | 16 | –
